Source: patent US20220202964A1, “HEPARANASE COMPOUNDS AND METHODS OF USE” (University of Florida Research Foundation, Incorporated, priority 2019, published 2022)

What was measured:
[1] = pH profile of fluorescence / pKa; type: physicochemical; settings: pH range from 1 to 13
Method: So, pH profiles of the fluorophore DiFMU and Compound 1 (HADP) were evaluated. […] In contrast, the pKa of 4-methylumbelliferone is ca. 7.8. […] Moreover, the introduction of the fluorine substituents increased the quantum yield and improved the photostability, enabling highly sensitive detection for heparanase.

[2] = target: T1, heparanase (Homo sapiens, UniProt Q9Y251); test: Activation of compounds by recombinant heparanase (fluorescence response); type: biochemical
T1 sequence (Q9Y251 36-543): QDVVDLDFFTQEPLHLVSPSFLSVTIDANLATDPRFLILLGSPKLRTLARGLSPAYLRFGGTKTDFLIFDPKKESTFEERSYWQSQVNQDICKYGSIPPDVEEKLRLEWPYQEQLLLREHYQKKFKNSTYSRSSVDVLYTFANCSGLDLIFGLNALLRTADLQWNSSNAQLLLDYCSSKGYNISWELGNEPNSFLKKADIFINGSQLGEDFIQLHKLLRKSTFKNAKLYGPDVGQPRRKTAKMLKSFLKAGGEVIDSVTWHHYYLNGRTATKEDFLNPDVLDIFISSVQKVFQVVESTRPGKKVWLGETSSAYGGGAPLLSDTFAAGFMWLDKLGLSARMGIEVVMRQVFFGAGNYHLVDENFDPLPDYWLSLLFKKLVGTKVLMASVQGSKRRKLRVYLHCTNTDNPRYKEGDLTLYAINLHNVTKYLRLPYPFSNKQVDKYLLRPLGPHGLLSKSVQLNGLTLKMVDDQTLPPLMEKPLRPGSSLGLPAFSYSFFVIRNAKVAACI
Method: To a solution of 20 μL, of 50 μM compound 1 (HADP) and 160 μL 40 mM NaOAc (pH=5.0) was added 20 μL, 0.1 μg/μL heparanase to obtain 5 μM 1 (HADP) with 2 μg heparanase solution. After incubation at 37° C. for 2 h, the reaction solution was transferred to quartz cuvettes to measure absorbance or fluorescence. Absorbance spectrum scan range from 250 nm to 500 nm (1 nm increment). fluorescence spectrum setting: λex=365 nm, Slit Width 2.5 nm. Emission was record from 400 nm to 600 nm, Slit Width 5 nm. Absorption spectra were recorded on Shimadzu UV-2700 UV-VIS Spectrophotometer. Fluorescence spectra were recorded on Fluorolog TAU-3 Spectrofluorometer with a xenon lamp (Jobin Yvon-Spex, Instruments S. A., Inc.)
Fluorescence micro cells was charged with 20 μL, of 50 μM compound 1 (HADP) and 160 μL 40 mM NaOAc (pH=5.0). Then 20 μL, 0.05 μg/μL heparanase was added to the above solution. Fluorescence spectra were recorded from 0 min to 3 h. fluorescence spectrum setting: λex=365 nm, Slit Width 2.5 nm. Emission was record from 400 nm to 600 nm, Slit Width 5 nm.
To a solution of 20 μL, of 50 μM each compound and 160 μL, 40 mM NaOAc (pH=5.0) was added 20 μL, 0.05 μg/μL heparanase to obtain 5 μM each compound with 1 μg heparanase solution in 96-well microplate. Each compound was performed in triplicate. Then the microplate was sealed with sealing film and incubated at 37° C. Fluorescence intensity was recorded on Spectramax M5 Multimode plate reader (Molecular Devices, USA) at each timepoint. λex/em=365 nm/455 nm.
(§1) 5 μM compound 1 (HADP) was incubated with various biological species at the indicated amount/concentration in 96-well microplate. Cysteine (5 mM), Glutathione (5 mM), H2O2 (100 μM), Esterase, Chondroitinase ABC, Hyaluronidase, Lysozyme, β-Glucuronidase, β-Glucosidase (5 μg each) and heparanase (2 μg). For Chondroitinase ABC and Hyaluronidase, 50 μg was also tested. Each sample was performed in triplicates. Then the microplate was sealed with sealing film and incubated at 37° C. for 4 hours. Fluorescence intensity was recorded on Spectramax M5 Multimode plate reader (Molecular Devices, USA). λex/em=365 nm/455 nm.

[3] = target: T2, Chondroitinase ABC (Proteus vulgaris, UniProt P59807); test: Fluorescence response to biological species: chondroitinase; type: biochemical; settings: 5 μM; chondroitinase 5 μg (50 μg also tested); 4 h, 37° C.
T2 sequence (P59807 25-1021): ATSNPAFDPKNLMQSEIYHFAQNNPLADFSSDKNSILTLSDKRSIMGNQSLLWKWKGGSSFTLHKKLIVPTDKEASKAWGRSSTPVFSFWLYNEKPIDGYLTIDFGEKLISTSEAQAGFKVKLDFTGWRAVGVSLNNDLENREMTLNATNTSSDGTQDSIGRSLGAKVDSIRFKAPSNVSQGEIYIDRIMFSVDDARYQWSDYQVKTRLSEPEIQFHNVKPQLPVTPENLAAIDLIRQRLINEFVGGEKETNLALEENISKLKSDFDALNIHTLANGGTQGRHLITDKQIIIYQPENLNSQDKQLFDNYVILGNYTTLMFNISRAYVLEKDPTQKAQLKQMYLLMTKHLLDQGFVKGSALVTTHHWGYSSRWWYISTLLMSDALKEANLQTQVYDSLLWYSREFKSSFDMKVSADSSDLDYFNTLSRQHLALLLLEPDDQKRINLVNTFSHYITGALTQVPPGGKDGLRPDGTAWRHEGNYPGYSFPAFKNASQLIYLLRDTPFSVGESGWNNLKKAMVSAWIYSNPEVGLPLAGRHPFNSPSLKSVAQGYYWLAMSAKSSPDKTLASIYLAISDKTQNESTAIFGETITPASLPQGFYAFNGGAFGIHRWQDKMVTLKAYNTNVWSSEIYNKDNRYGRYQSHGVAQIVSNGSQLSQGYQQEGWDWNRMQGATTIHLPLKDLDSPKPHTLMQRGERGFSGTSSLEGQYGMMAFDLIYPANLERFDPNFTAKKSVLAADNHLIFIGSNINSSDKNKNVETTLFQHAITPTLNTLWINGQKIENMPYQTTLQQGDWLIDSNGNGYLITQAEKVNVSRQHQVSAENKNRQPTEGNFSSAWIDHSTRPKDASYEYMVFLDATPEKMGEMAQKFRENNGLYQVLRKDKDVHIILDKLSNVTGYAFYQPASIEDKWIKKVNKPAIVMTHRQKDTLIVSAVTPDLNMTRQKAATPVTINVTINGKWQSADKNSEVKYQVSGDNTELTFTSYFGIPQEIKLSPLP
Method: as §1

In the case of Cc1cc(=O)oc2c(F)c(O[C@@H]3O[C@H](C(=O)O)[C@@H](O[C@H]4O[C@H](CO)[C@@H](O)[C@H](O)[C@H]4NS(=O)(=O)O)[C@H](O)[C@H]3O)c(F)cc12 [Compound 1], the “fluorescence change at 455 nm over pH” value [1] is reported as “no remarkable fluorescence change”, the “fluorescence response towards heparanase” value ([2]; 5 μM compound, 1 μg heparanase, 40 mM NaOAc buffer (pH 5.0), 37° C., λex/em=365 nm/455 nm) is reported as “significant fluorescence enhancement” and the “fluorescence enhancement turn-on ratio at 450 nm” value ([2]; 5 μM, heparanase 2 μg (0.01 μgμl-1), after 2 hours, NaOAc pH 5.0) is reported as “up to 756 fold”. The “fluorescence off-on response to heparanase in selectivity panel” value ([2]; 5 μM, heparanase 2 μg, 4 h, 37° C.) was “largest “off-on” response”, the “time at which fluorescence reached a plateau” value ([2]; HADP 5 μM, heparanase 1 μg) was 2.5 h and the “time at which the enzymatic reaction was completed after addition of heparanase” value ([2]; heparanase 2 μg, 5 μM probe) was 40 min. For the same compound, the fluorescence change [3] was “did not afford obvious fluorescence change”.
